Measured values reported in PubChem BioAssay (NCI).
“And” between values parts separate entries of the source, which are not always exact repeats. Identical values can stand only once.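 Dose response: 5 concentrations. Exposure: 48 h. Format: 96-well plates. Endpoint: linear interpolation; highest concentration if not reached. GI50 = concentration required for 50% inhibition of growth. TGI is the concentration that stops growth completely.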

How the values were obtained:
Assay in all cases: NCI tumour cell line growth inhibition, 48 h
[1] = test system: MDA-N
[2] = test system: DLD-1 colon
[3] = test system: DMS 114 small cell lung
[4] = test system: DMS 273 small cell lung
[5] = test system: KM20L2 colon
[6] = test system: LXFL 529 NSCLC
[7] = test system: M19-MEL melanoma
[8] = test system: XF 498 CNS
[9] = test system: RXF-631 renal
[10] = test system: P388/ADR leukemia

| SMILES | TGI [1] | TGI [2] | TGI [3] | TGI [4] | TGI [5] | TGI [6] | TGI [7] | TGI [8] | TGI [9] | other results |
| --- | --- | --- | --- | --- | --- | --- | --- | --- | --- | --- |
| O=[N+]([O-])c1ccc(C(c2c[nH]c3ccccc23)c2c[nH]c3ccccc23)cc1 | 27.5 µM | – | – | – | – | – | – | – | – | – |
| Nc1nc(SCc2ccccn2)c2ncn(C3CCCC3)c2n1 | > 100 µM | – | – | – | – | – | – | – | – | – |
| C[C@@H]1C[C@@H](O)[C@]2(O)O[C@@H]3C[C@@]4(C=O)[C@@H](CC[C@@H]5[C@@H]4CC[C@]4(C)[C@@H](C6=CC(=O)OC6)CC[C@]54O)C[C@H]3O[C@@H]2O1 | 0.189 µM | 0.0375 µM and 0.033 µM | 0.0094 µM and 0.0134 µM | 0.0724 µM and 0.0123 µM | 0.0631 µM and 0.107 µM | 0.0164 µM and 0.0576 µM | 0.104 µM and 0.0732 µM | 0.0571 µM and 0.0493 µM | – | GI50 [2]: 0.0053 µM; GI50 [3]: 0.005 µM; GI50 [5]: 0.0218 µM; GI50 [7]: 0.0125 µM; GI50 [8]: 0.0206 µM |
| CC[C@H](C)N(CCN)C(=O)c1cc2ccccc2c(-c2ccccc2Cl)n1 | – | – | 28 µM | 27.6 µM | 26.6 µM | 10.4 µM | – | – | – | – |
| O=C(CNc1nncs1)NO | – | > 100 µM | > 100 µM | > 100 µM | > 100 µM | > 100 µM | > 100 µM | – | – | – |
| COc1cccc(C2CC(C)(N3CCCC3)Oc3cc4c(cc32)OCO4)c1O (stereo not drawn) | 10.7 µM | – | – | – | – | – | – | – | – | – |
| N#CCC1COc2ccccc2O1 (stereo not drawn) | > 10 µM | – | – | – | – | – | – | – | – | – |
| CC1=C(C)C(=O)c2c(cc3ccc4ccccc4n23)C1=O | – | > 100 µM | > 100 µM | > 100 µM | – | > 100 µM | > 100 µM | – | > 100 µM | – |
| COc1ccc(C(=O)/C(Br)=C/C(=O)O)cc1 | 209 µM and 153 µM | 73.5 µM | 114 µM | 26.3 µM | 185 µM | – | 106 µM | 16 µM | – | GI50 [1]: 47.4 µM; TGI [10]: 108 µM |
| C=CCn1c2c(c3ccccc3c1=O)C(=O)c1ccccc1-2 | > 100 µM | – | – | – | – | – | – | – | – | – |
| CN1CC[C@@H](c2c(O)cc(O)c3c(=O)cc(-c4ccccc4Cl)oc23)[C@@H](O)C1 | 0.349 µM and 0.148 µM | > 100 µM | 0.334 µM | 0.32 µM | – | > 68.6 µM | – | 0.533 µM | – | GI50 [1]: 0.124 µM and 0.0494 µM |
| CC(=O)O/C=C(/C=C/OC(C)=O)C(C/C=C(\C)C#CC=C(C)C)OC(C)=O (stereo not drawn) | – | > 100 µM | 38.5 µM | > 100 µM | > 100 µM | 37.1 µM | 41.7 µM | > 100 µM | > 100 µM | – |
| CCOc1ccccc1NC(=O)C(=O)CC(=O)c1c(C)n([O-])c2ccccc2[n+]1=O | – | – | > 100 µM | > 100 µM | > 100 µM | > 100 µM | > 100 µM | – | – | – |
| CC(=O)n1c(COS(C)(=O)=O)nc2ccccc21 | > 100 µM | – | – | – | – | – | – | – | – | – |
| CN1CCN(CN2C(=O)C3C4C=CC(C3C2=O)C2C3C(=O)N(CN5CCN(C)CC5)C(=O)C3C42)CC1 (stereo not drawn) | 32.5 µM | 49.7 µM and 41 µM and 52.4 µM | 36.8 µM and 37.7 µM and 35.5 µM | 39.4 µM and 30.9 µM and 10.6 µM | 56.8 µM and 40.9 µM and 63.4 µM | 35.9 µM and 32.7 µM and 57.3 µM | – | – | – | – |
| Cc1ccc(OCC(=O)N2N=C(c3ccccc3)CC2(O)c2ccccc2)cc1 (stereo not drawn) | – | > 100 µM | – | 40.2 µM | 41.3 µM | > 100 µM | > 100 µM | > 100 µM | > 100 µM | – |
| CNC(P(=O)([O-])[O-])P(=O)([O-])[O-].N.N.[Pt+2] | – | > 100 µM | – | > 100 µM | > 100 µM | > 100 µM | – | – | – | GI50 [2]: > 100 µM; GI50 [4]: > 100 µM; GI50 [5]: > 100 µM; GI50 [6]: > 100 µM |
| CC1=C(C(=O)Nc2c(C)cccc2C)C(c2ccc3c(c2)OCO3)C(C(=O)Nc2c(C)cccc2C)=C(C)N1 | – | 86.8 µM | 38.1 µM | – | 29 µM | 43.9 µM | – | – | 42.3 µM | – |
| COC(=O)C1CC2(CC3=C1CCCC3)OCCO2 (stereo not drawn) | – | > 100 µM | > 100 µM | > 100 µM | – | > 100 µM | > 100 µM | > 100 µM | > 100 µM | – |
| Cc1cc2c(c(C#N)c1C)NC(=O)CCC2=O | – | > 100 µM | > 100 µM | > 100 µM | > 100 µM | > 100 µM | > 100 µM | > 100 µM | > 100 µM | – |

| SMILES | TGI [1] | TGI [2] | TGI [3] | TGI [4] | TGI [5] | TGI [6] | TGI [7] | TGI [8] | TGI [9] | other results |
| --- | --- | --- | --- | --- | --- | --- | --- | --- | --- | --- |
| O=C(O)CSc1n[nH]c(-c2ccc(O)cc2)n1 | – | > 100 µM | > 100 µM | > 100 µM | > 100 µM | – | > 100 µM | > 100 µM | > 100 µM | – |
| Nn1c(-c2ccccc2)nc2ccc(Br)cc2c1=O | – | > 100 µM | > 100 µM | > 100 µM | > 100 µM | > 100 µM | > 100 µM | > 100 µM | > 100 µM | – |
| Cc1cc(C)nc(NS(=O)(=O)c2ccc(Nc3c4ccccc4nc4c(C(=O)Nc5ccc(S(=O)(=O)N=C(N)N)cc5)ccc(Cl)c34)cc2)n1 | – | > 100 µM | 41.8 µM | > 100 µM | > 100 µM | 72.4 µM | 55.4 µM | 56.7 µM | – | – |
| Cn1c2c(c3ccccc31)CCN(CCCCN1CCc3c(n(C)c4ccccc34)C1=O)C2 | – | > 100 µM | > 100 µM | > 100 µM | > 100 µM | > 100 µM | > 100 µM | > 100 µM | > 100 µM | – |
| O=C1CC(O)C=C1Nc1ccc(Cl)cc1 (stereo not drawn) | – | > 100 µM | > 100 µM | > 100 µM | 37.8 µM | > 100 µM | > 100 µM | – | > 100 µM | – |
| Cc1nc2c(nc1C)C(=O)c1cc(O)ccc1C2=O | – | > 86.8 µM | > 90.6 µM | > 100 µM | > 100 µM | > 100 µM | 22.3 µM | – | – | – |
| N#Cc1c(-c2nc3ccccc3s2)c(=O)oc2cc(O)ccc12 | > 100 µM | – | – | – | – | – | – | – | – | – |
| O=P(O)(CCP(=O)(O)c1ccccc1)c1ccccc1 | > 100 µM | – | – | – | – | – | – | – | – | – |
| O=C(c1ccccc1)C(C(=O)c1ccccc1)C1(O)C(=O)c2ccccc2C1=O | – | – | – | > 100 µM | > 100 µM | > 100 µM | 42.6 µM | > 100 µM | – | – |
| Cn1c(=O)nc2n(-c3ccc(Cl)cc3)c3ccc(Cl)cc3nc-2c1=O | – | – | – | – | 36.7 µM | – | – | – | – | – |
| N#CCC(=O)Nc1cccc(C(F)(F)F)c1 | – | > 100 µM | – | > 100 µM | > 100 µM | > 100 µM | > 100 µM | > 100 µM | > 100 µM | – |
| N#Cc1cn(C2OC(CO)C(O)C2O)c2ncnc(N)c12 (stereo not drawn) | – | > 272 µM | – | 0.39 µM and 0.07 µM | 3.42 µM and 12 µM | – | 1.56 µM and 7.69 µM | 0.013 µM and 0.0663 µM | – | GI50 [2]: 0.0277 µM; GI50 [5]: 0.0045 µM; GI50 [1]: 0.0281 µM; GI50 [10]: 0.0127 µM and 0.045 µM; GI50 [8]: 0.045 µM |
| COc1cc(CCc2ccc(OCCN(C)C)cc2)cc(OC)c1OC | – | > 100 µM | > 100 µM | > 100 µM | > 100 µM | > 100 µM | > 100 µM | 93.7 µM | > 100 µM | – |
| Nc1ccn(CCOC(=O)c2ccccc2)c(=O)n1 | – | > 100 µM | – | > 100 µM | > 100 µM | > 100 µM | – | – | > 100 µM | – |
| Cc1ncc(CN=Cc2ccc(Cl)cc2)c(N)n1 | > 100 µM | – | – | – | – | – | – | – | – | – |
| CCOC(=O)[C@@]1(C)C=C2O[C@@H]3OC4(CCCCC4)O[C@@H]3C2=C2C(O)=CC=C(O)[C@]21C(=O)OC | – | > 68 µM | > 68 µM | > 68 µM | > 68 µM | > 68 µM | > 68 µM | > 68 µM | > 68 µM | – |
| O=C(c1ccccc1)C(c1ccccc1)C1(O)C(=O)Nc2c(Cl)cc(Cl)cc21 (stereo not drawn) | – | 37.5 µM | 33.9 µM | 83.2 µM | > 100 µM | 25.7 µM | – | > 100 µM | 38 µM | – |
| COc1cc([C@H]2c3cc4c(cc3O[C@@]3(O)COC(=O)[C@@H]23)OCO4)cc(OC)c1OC | > 100 µM | > 100 µM | > 100 µM | > 100 µM | > 100 µM | – | > 100 µM | > 100 µM | > 100 µM | – |
| CCOC(=O)C(=O)Nc1nc2c(s1)C(=O)c1ccccc1C2=O | – | 31.8 µM | 17.6 µM | 40.6 µM | 40.7 µM | 26.2 µM | 7.45 µM | 26.9 µM | 27.8 µM | – |
